Read-outs that look alike come from different tables or passages of the source.
Key:
[1] = test system: hepatic stage of P. berghei; assay: In vitro activity against P. berghei hepatic stages (luciferase-expressing sporozoites in Huh-7 cells, bioluminescence); format: cell-based, Plasmodium berghei; conditions: for activity at 1 µM / activity at 10 µM / IC50: Plasmodium berghei; for activity at 1 µM / activity at 10 µM: Huh-7, 48 h, DMSO = 100, read-out: INFECTION Ø screening; for activity against P. berghei hepatic stages: screening at 10 and 1 µM / IC50 determination
Method in brief: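 Huh-7 hepatoma cells pretreated with compounds 1 h, then infected with luciferase-expressing P. berghei sporozoites (1 × 10^4/well, 1:1 ratio) and incubated at 37 °C.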

[2] = test system: Huh-7 cell line; assay: Huh-7 cell confluency by alamarBlue assay during hepatic-stage test; format: cell-based
Method in brief: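 Huh-7 human hepatoma cells pre-treated with compound in infection medium 1 h before luciferase-expressing P. berghei sporozoites were added (1:1, 1 × 10^4 per well), then incubated 46 h at 37 °C, 5% CO2. Confluency assessed indirectly by alamarBlue; IC50 from nonlinear-regression fit of normalized dose-response curves.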

[3] = test system: P. falciparum NF54 ring-stage synchronized cultures; assay: In vitro activity against P. falciparum blood stages (flow cytometry, SYBR green I); format: cell-based, Plasmodium falciparum; conditions: Control = 7.76333, 48 h
Procedure: Activity against the blood stage of P. falciparum infection was assessed by flow cytometry analysis following the incubation of either test compounds or the drug vehicle (DMSO) with ring-stage synchronized parasite cultures, as previously described. Stock solutions of the test compounds, as well as of the positive control compound chloroquine, were prepared in DMSO and diluted to test concentrations in complete malaria culture medium (CMCM), i.e., 1640 RPMI medium supplemented with 25 mM HEPES, 2.4 mM L-glutamine, 50 µg/mL gentamicin, 0.5% w/v Albumax, 11 mM glucose, 1.47 mM hypoxanthine, and 37.3 mM NaHCO3. Samples at tested concentration were then incubated with ring-stage synchronized cultures of P. falciparum NF54 at 2.5% hematocrit and at approximately 1% parasitemia in 96-well plates at 37 °C in a 5% CO2 and 5% O2 atmosphere. Forty-eight hours post incubation, parasite load was assessed by flow cytometry, upon staining with the DNA-specific dye SYBR green I. Approximately 100,000 events were analyzed in each flow cytometry measurement.

[4] = Cytotoxicity assessment in vitro (MTT assay); format: cell-based; conditions: human
Method in brief: (§1)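 Human HepG2 hepatocellular carcinoma cells (passage 20–25) were treated with compound at 10 μM in triplicate for 24 h at 37 °C, 5% CO2. Viability was then measured by MTT: 3 h incubation, formazan dissolved in DMSO, absorbance read at 570 nm.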

[5] = test system: HepG2 cells; assay: Cytotoxicity assessment in vitro (MTT assay); format: cell-based
Method in brief: as §1

[6] = hepatic stage, Huh-7 cells, parasite load 48 h post-infection, read-out: IC50 P. berghei
[7] = Huh-7, mean, unit (Table 1: µM), read-out: Antiplasmodial activity - Ø IC50
[8] = Huh-7, replicate 1, unit (Table 1: µM), read-out: Antiplasmodial activity - IC50 determination, 1. measurement
[9] = Huh-7, replicate 2, unit (Table 1: µM), read-out: Antiplasmodial activity - IC50 determination, 2. measurement
[10] = Huh-7, replicate 3, unit (Table 1: µM), read-out: Antiplasmodial activity - IC50 determination, 3. measurement

Structure (SMILES)	activity at 1 µM [1]	activity at 10 µM [1]	IC50 [1, 6]	CELL CONFLUENCY Ø screening ([2]; human, 46 h, 1 µM, pH 7)	CELL CONFLUENCY Ø screening ([2]; human, 46 h, 10 µM, pH 7)	Ø screening, blood stage parasite load ([3]; at 10 nM)	Ø screening, blood stage parasite load ([3]; at 500 nM)	Ø screening, blood stage parasite load ([3]; at 100 nm)	viability at 24 h, 10 µM [4]	1. screening of cytotoxic potential, HepG2 cell line ([5]; human, 24 h, 10 µM)	2. screening of cytotoxic potential, HepG2 cell line ([5]; human, 24 h, 10 µM)	3. screening of cytotoxic potential, HepG2 cell line ([5]; human, 24 h, 10 µM)	Ø screening, HepG2 (sheet Graphs) ([5]; human, 24 h, 10 µM)	IC50 [1, 7]	IC50 [1, 8]	IC50 [1, 9]	IC50 [1, 10]	other results
COc1c2c(cc3c1OCO3)[C@]13C=C[C@H](OC)C[C@H]1[N@](C2)C[C@H]3OC(C)=O [28a, 11-O-Acetylambelline]	79.5%	64.4%	> 10 µM	94.22	93.33	7.817	11.5	10.27	107 ± 3%	104.06	105.26	110.57	106.6	–	–	–	–	–
COc1c2c(cc3c1OCO3)[C@]13C=C[C@H](OC)C[C@H]1N(C2)C[C@H]3OC(=O)c1ccc([N+](=O)[O-])cc1 [28q, 11-O-(4-Nitrobenzoyl)ambelline]	64.6%	3.9%	1.2 ± 0.18 µM	102	102.2	6.94	4.487	4.835	53 ± 6%	48.34	59.99	49.2	52.51	1.2 µM	1.17 µM	1.03 µM	1.39 µM	–
COc1c2c(cc3c1OCO3)[C@]13C=C[C@H](OC)C[C@H]1N(C2)C[C@H]3OC(=O)c1ccc([N+](=O)[O-])cc1Cl [28s, 11-O-(2-Chloro-4-nitrobenzoyl)ambelline]	48.2%	1.4%	–	95.79	77.1	7.46	7.523	7.653	54 ± 6%	55.56	46.62	58.6	53.59	–	–	–	–	activity against P. berghei hepatic stages [1]: not dose-dependent
COc1c2c(cc3c1OCO3)[C@]13C=C[C@H](OC)C[C@H]1N(C2)C[C@H]3OC(=O)C(C)C [28c, 11-O-Isobutanoylambelline]	89.1%	59.8%	> 10 µM	94.69	93.64	7.643	7.21	8.26	95 ± 6%	97.78	100.15	88.22	95.38	–	15.5 µM	14.4 µM	–	–
COc1c2c(cc3c1OCO3)[C@]13C=C[C@H](OC)C[C@H]1N(C2)C[C@H]3OC(=O)c1ccccc1 [28e, 11-O-Benzoylambelline]	45.7%	2.18%	0.726 ± 0.126 µM	94.15	86.56	7.597	7.383	7.907	95 ± 7%	98.77	99.24	87.15	95.05	0.726 µM	0.662 µM	0.646 µM	0.871 µM	–
COc1c2c(cc3c1OCO3)[C@]13C=C[C@H](OC)C[C@H]1N(C2)C[C@H]3OC(=O)c1cc(C)cc(C)c1 [28h, 11-O-(3,5-Dimethylbenzoyl)ambelline]	8.82%	0.852%	0.1 ± 0.018 µM	–	–	8.137	6.735	6.763	–	–	–	–	–	0.1 µM	0.0992 µM	0.0828 µM	0.118 µM	CELL CONFLUENCY Ø screening ([2]; at 1 μM, DMSO = 100, in % (unit assumed)): 93.78; CELL CONFLUENCY Ø screening ([2]; at 10 μM, DMSO = 100, in % (unit assumed)): 54.73; viability at 24 h, 10 µM ([4]; c = 10 µM, 24 h, MTT, read-out: HepG2 % of cell viability compared to non-treated control (100%)): 74 ± 13%; Ø screening, HepG2 (sheet Graphs) ([5]; c = 10 μM, DMSO = 100, in %): 74.24; 1. screening of cytotoxic potential, HepG2 cell line ([5]; c = 10 μM, replicate 1, in %): 61.45; 2. screening of cytotoxic potential, HepG2 cell line ([5]; c = 10 μM, replicate 2, in %): 88.22; 3. screening of cytotoxic potential, HepG2 cell line ([5]; c = 10 μM, replicate 3, in %): 73.05
COc1c2c(cc3c1OCO3)[C@]13C=C[C@H](OC)C[C@H]1N(C2)C[C@H]3OC(=O)c1cccc([N+](=O)[O-])c1 [28p, 11-O-(3-Nitrobenzoyl)ambelline]	48.1%	1.45%	1.53 ± 0.22 µM	87.05	79.58	4.593	4.517	4.83	75 ± 6%	70.36	72.83	81.93	75.04	1.53 µM	1.46 µM	1.36 µM	1.78 µM	–
COc1c2c(cc3c1OCO3)[C@]13C=C[C@H](OC)C[C@H]1N(C2)C[C@H]3OC(=O)c1ccc(Cl)c([N+](=O)[O-])c1 [28t, 11-O-(4-Chloro-3-nitrobenzoyl)ambelline]	114%	92.6%	–	96.94	92.83	7.33	7.613	7.113	15 ± 2%	13.64	17.76	14.19	15.2	–	–	–	–	activity against P. berghei hepatic stages [1]: not dose-dependent
